The values that follow come from patent US8912156B1, “Markers for and methods of targeting tumor stem cells” (Whitehead Institute for Biomedical Research, priority 2011, dated 2014).

The structures appear in SMILES notation.

For data set [1], the system named is BPLER cells. In words: Mammosphere (tumorsphere) formation of BPLER cells after short-term drug treatment. Format: cell-based, human. Particulars: for BPLER cell capacity to form mammospheres (tumorsphere formation): 24 hours treatment, 24 hours recovery, 7 days drug-free sphere culture; for difference in response between BPLER and HMLER cells: BPLER vs HMLER. On the procedure: (§1) Nor was any difference observed between BPLER and HMLER cells with paclitaxel or 5-fluorouracil (FIG. 3B). As noted above, tumorsphere formation capacity correlates with TSC subpopulations. With the tumorsphere assay employed, a single tumor cell can form a multicellular tumorsphere in suspension. To assess the short term effect of drug treatment, drugs were removed after treating the tumor cells in routine 2D culture conditions for 24 hours, and after a recovery period of 24 hours tumorsphere cultures were suspended in a medium free of drugs for 7 days.
(§2) BPLER and HMLER cells were maintained in WIT-T (Stemgent) and MGEM (Lonza) medium at 37° C. and 5% CO2. The remaining cell lines were grown in DMEM/F12 (Gibco) with 10% fetal bovine serum (FBS) at 37° C. and 5% CO2. The BPLER cells were grown on Primaria plasticware (BD Biosciences). The remaining cells were grown on standard plasticware (Falcon). The mammospheres were maintained in a 1:1 ratio of WIT-T/MEGM (less bovine pituitary extract) using 2% B27 (Invitrogen), 20 ng/ml EGF, 20 ng/ml bFGF (BD Biosciences), 4 ug/ml heparin (Sigma), and 0.5% methyl cellulose. Sphere formation experiments were carried out by plating 15,000-20,000 cells/well into 6-well ultra-low attachment plates (Corning). The cells were fed at days 1, 3, and 5, and spheres were counted at day 7.
(§3) Drug treatment experiments were performed in a 1:1 ratio of WIT-T/MEGM media. […] To evaluate the drug effect on 2D proliferation of BPLER and HMLER cells, the cells were plated at 125,000 cells/well in 6-well Primaria plates. Drug-containing media was added to each well after 24 hours. The cells were treated continuously for 4 days with drug-containing media changes each day. Cell number was counted with a hemocytometer after 4 days of treatment. To evaluate the drug effect on BPLER and HMLER cell mammosphere formation, cells were plated at 50% confluence in Primaria flasks. After 24 hours, drug-containing media was added to each flask. After 24 hours of treatment with the drug-containing media, the cells recovered for 24 hours in a drug-free media. Cells were then plated for the mammosphere protocol as described previously.

Data set [2] concerns HMLER cells. Nature of the data set: Mammosphere (tumorsphere) formation of HMLER cells after short-term drug treatment. Conditions: 24 hours treatment, 24 hours recovery, 7 days drug-free sphere culture. In kind it is cell-based, human. On the procedure:
as §1, §2
as §3, with “Cells were then plated for the mammosphere protocol as described previously.” left out

Data set [3] deals with HMLER cells. Nature of the data set: Drug effect on 2D proliferation of HMLER cells. Format: cell-based, human. Conditions: only when the drugs were present. On the procedure:
as §2
(§4) Drug treatment experiments were performed in a 1:1 ratio of WIT-T/MEGM media. […] To evaluate the drug effect on 2D proliferation of BPLER and HMLER cells, the cells were plated at 125,000 cells/well in 6-well Primaria plates. Drug-containing media was added to each well after 24 hours. The cells were treated continuously for 4 days with drug-containing media changes each day. Cell number was counted with a hemocytometer after 4 days of treatment. To evaluate the drug effect on BPLER and HMLER cell mammosphere formation, cells were plated at 50% confluence in Primaria flasks. […]

Data set [4] has as its system BPLER cells. Format: cell-based, human. Conditions: only when the drugs were present. On the procedure:
as §2, §4

Data set [5] concerns other Class I and Class II HDACs. Particulars: TSA treatment of breast tumor cells; cited from earlier work.

In the case of `O=c1[nH]cc(F)c(=O)[nH]1` [5-fluorouracil], in the data set with BPLER cells [1], the “BPLER cell capacity to form mammospheres (tumorsphere formation)” value (“BPLER cell capacity to form mammospheres” below) is listed as “not inhibited”; the “difference in response between BPLER and HMLER cells” value is on record as “no difference”. In addition, in the data set with HMLER cells [2], the “HMLER cell capacity to form mammospheres (tumorsphere formation)” value (“HMLER cell capacity to form mammospheres” below) was “not inhibited”. The “cytotoxic effect on HMLER cells” value with HMLER cells [3] is “cytotoxic effect”. For the same compound, in the data set on BPLER cells [4], the “cytotoxic effect on BPLER cells” value is recorded as “cytotoxic effect”.
In the case of `CC(/C=C/C(=O)NO)=C\[C@@H](C)C(=O)c1ccc(N(C)C)cc1` [TSA, trichostatin A], the “BPLER cell capacity to form mammospheres” value with BPLER cells [1] was “significantly decreased”. In addition, the “HMLER cell capacity to form mammospheres” value with HMLER cells [2] is recorded as “did not affect”. Besides, the “changes in expression of other Class I and Class II HDACs” value in data set [5] was “less than 2 fold”.
Turning to `CC(=O)O[C@H]1C(=O)[C@@]2(C)[C@H]([C@H](OC(=O)c3ccccc3)[C@]3(O)C[C@H](OC(=O)[C@H](O)[C@@H](NC(=O)c4ccccc4)c4ccccc4)C(C)=C1C3(C)C)[C@]1(OC(C)=O)CO[C@@H]1C[C@@H]2O` [paclitaxel], in the data set on BPLER cells [1], the “BPLER cell capacity to form mammospheres” value was “not inhibited”; the “difference in response between BPLER and HMLER cells” value was “no difference”. In the data set with HMLER cells [2], the “HMLER cell capacity to form mammospheres” value is given as “not inhibited”. In addition, the “cytotoxic effect on HMLER cells” value in the data set on HMLER cells [3] is “cytotoxic effect”. The “cytotoxic effect on BPLER cells” value with BPLER cells [4] is listed as “cytotoxic effect”.
